The compounds below were run on Aβ1-42 production (assay: Cellular assay for inhibition of Aβ1-42 production (H4 APP751 SWE clone 8.20)). Conditions: 19 h, H4 APP751 SWE clone 8.20 cells, 19 h incubation; class symbols; read-out: Activity Rating (Aβ42 cellular IC50).
Assay type: cell-based
Method: Cellular Assays for Inhibition of Aβ1-40 and Aβ1-42 Production
H4 cells stably transfected with APP751 containing the Swedish mutation (H4 APP751 SWE clone 8.20, developed at BMS) were maintained in log phase through twice weekly passage at a 1:20 split. […] Following incubation for 19 h in 5% CO2 at 37° C., plates were briefly centrifuged (1000 rpm, 5 min). A 10 μl aliquot from each well was transferred to a second assay plate (Costar 3709) for Aβ40 measurements. Antibody cocktails were freshly prepared by dilution into 40 mM Tris-HCl (pH 7.4) with 0.2% BSA and added to assay plates. For Aβ42 measurements, antibodies specific for the Aβ42 neoepitope (565, developed at BMS; conjugated to the Wallac reagent (Perkin Elmer)) and the N-terminal sequence of Aβ peptide (26D6, developed at SIBIA; conjugated to APC (Perkin Elmer)) were mixed and 20 μl of the mixture was added to each well of the incubated cell plate yielding a final concentration of 0.8 ng/well 565 and 75 ng/well 26D6. For the Aβ40 measurements, antibodies specific for the Aβ40 neoepitope (TSD, developed at BMS; conjugated to the Wallac reagent (Perkin Elmer)) and 26D6 as described above were mixed and 20 μl of the mixture was added to the 10 μl aliquots which had been removed previously from the cell plate yielding a final concentration of 1.6 ng/well TSD and 17.5 ng/well 26D6. Assay plates containing antibodies were sealed with aluminum foil and incubated overnight at 4° C. Signal was determined using a Viewlux counter (Perkin Elmer) and IC50 values determined using curve fitting in CurveMaster (Excel Fit based).
For `CNc1nc(Nc2ccc(-n3cnc(Cl)c3)c(OC)c2)nc2c1C(=O)CC2c1ccccc1` (racemic) [Example 200, (±)-2-(4-(4-chloro-1H-imidazol-1-yl)-3-methoxyphenylamino)-4-(methylamino)-7-phenyl-6,7-dihydro-5H-cyclopenta[d]pyrimidin-5-one], the IC50 was 10 to 100 nM. Work on `COc1cc(Nc2nc3c(c(N4CC5(C4)OCCO5)n2)CCC3c2ccccc2)ccc1-n1cnc(Cl)c1` (stereo not drawn) [Example 184, N-(4-(4-chloro-1H-imidazol-1-yl)-3-methoxyphenyl)-7-phenyl-4-(5,8-dioxa-2-azaspiro[3.4]octan-2-yl)-6,7-dihydro-5H-cyclopenta[d]pyrimidin-2-amine] yielded an IC50 of 10 to 100 nM. In the case of `COc1cc(Nc2nc3c(c(N4C[C@@H](C)O[C@@H](C)C4)n2)COC3c2ccc(F)cc2)ccc1-n1cnc(Cl)c1` (stereo partly drawn) [Example 84A, N-(4-(4-chloro-1H-imidazol-1-yl)-3-methoxyphenyl)-4-((2S,6R)-2,6-dimethylmorpholino)-7-(4-fluorophenyl)-5,7-dihydrofuro[3,4-d]pyrimidin-2-amine], the IC50 is reported as 10 to 100 nM. `CCNc1nc(Nc2ccc(-n3cnc(Cl)c3)c(OC)c2)nc2c1COCC2c1ccc(C#N)cc1` (stereo not drawn) [Example 121A, 4-(2-(4-(4-chloro-1H-imidazol-1-yl)-3-methoxyphenylamino)-4-(ethylamino)-7,8-dihydro-5H-pyrano[4,3-d]pyrimidin-8-yl)benzonitrile] showed an IC50 of 1.5 to 9.9 nM. Work on `CNc1nc(Nc2ccc(-n3cnc(C)n3)c(OC)c2)nc2c1CC[C@@H]2c1cccc(OC)c1` [Example 272B, (R)—N2-(3-methoxy-4-(3-methyl-1H-1,2,4-triazol-1-yl)phenyl)-7-(3-methoxyphenyl)-N4-methyl-6,7-dihydro-5H-cyclopenta[d]pyrimidine-2,4-diamine] yielded an IC50 of 10 to 100 nM. For `CNc1nc(Nc2cccc(OC)c2)nc2c1CCC2c1ccccc1` (stereo not drawn) [Example 217, N2-(3-methoxyphenyl)-N4-methyl-7-phenyl-6,7-dihydro-5H-cyclopenta[d]pyrimidine-2,4-diamine], the IC50 was > 1000 nM. For `COc1cc(Nc2nc(N(C)C)c3c(n2)C(O)(c2ccccc2)CC3)ccc1-n1cnc(Cl)c1` (stereo not drawn) [Example 179, 2-(4-(4-chloro-1H-imidazol-1-yl)-3-methoxyphenylamino)-4-(dimethylamino)-7-phenyl-6,7-dihydro-5H-cyclopenta[d]pyrimidin-7-ol], the IC50 was 10 to 100 nM. `CNc1nc(Nc2ccc(-c3ccnc(Cl)c3)c(OC)c2)nc2c1CCC2c1ccccc1` (stereo not drawn) [Example 278, N2-(4-(2-chloropyridin-4-yl)-3-methoxyphenyl)-N4-methyl-7-phenyl-6,7-dihydro-5H-cyclopenta[d]pyrimidine-2,4-diamine] was tested, and the IC50 was 10 to 100 nM.

Same assay, conditions: H4 APP751 SWE clone 8.20 cells, 19 h incubation; class symbols; read-out: Activity Rating (Aβ42 cellular IC50)
Compound `CNc1nc(Nc2ccc(-n3cnc(Cl)c3)c(OC)c2)nc2c1CCC2c1ccc(Cl)cc1` (single isomer, unassigned) [Example 94A, N^2-(4-(4-chloro-1H-imidazol-1-yl)-3-methoxyphenyl)-7-(4-chlorophenyl)-N^4-methyl-6,7-dihydro-5H-cyclopenta[d]pyrimidine-2,4-diamine] has an IC50 of 1.5 to 9.9 nM. `CNc1nc(Nc2ccc(-n3cnc(Cl)c3)c(OC)c2)nc2c1CCC2c1ccc(OC(F)(F)F)cc1` (single isomer, unassigned) [Example 97B, N^2-(4-(4-chloro-1H-imidazol-1-yl)-3-methoxyphenyl)-N^4-methyl-7-(4-(trifluoromethoxy)phenyl)-6,7-dihydro-5H-cyclopenta[d]pyrimidine-2,4-diamine] was tested, and the IC50 was 10 to 100 nM. Work on `CCNc1nc(Nc2ccc(-n3cnc(Cl)c3)c(OC)c2)nc2c1COCC2c1cc(F)cc(F)c1` (stereo not drawn) [Example 112A, N2-(4-(4-chloro-1H-imidazol-1-yl)-3-methoxyphenyl)-8-(3,5-difluorophenyl)-N4-ethyl-7,8-dihydro-5H-pyrano[4,3-d]pyrimidine-2,4-diamine] yielded an IC50 of 1.5 to 9.9 nM. `COc1cc(Nc2nc3c(c(N4CC(F)(F)C4)n2)COCC3c2ccc(F)cc2)ccc1-n1cnc(Cl)c1` (stereo not drawn) [Example 63B, N-(4-(4-chloro-1H-imidazol-1-yl)-3-methoxyphenyl)-4-(3,3-difluoroazetidin-1-yl)-8-(4-fluorophenyl)-7,8-dihydro-5H-pyrano[4,3-d]pyrimidin-2-amine] showed an IC50 of 100 to 1000 nM.
